From patent US9233989B2, “Sila analogs of oxazolidinone derivatives and synthesis thereof” (Council of Scientific & Industrial Research, priority 2011, dated 2016)
Values after ≈ are worked out from the molar mass of the structure shown.

Columns and labels:
MRSE ATCC 35983 = assay: MIC by microbroth dilution method; type: cell-based, S. epidermidis
MRSA ATCC 43300 = assay: MIC by microbroth dilution method; type: cell-based, S. aureus
E.faecium ATCC 19434 = assay: MIC by microbroth dilution method; type: cell-based
E.faecalis SP 346 VRE = assay: MIC by microbroth dilution method; type: cell-based
E.faecium 134 VRE = assay: MIC by microbroth dilution method; type: cell-based
E.faecium ATCC 3567 = assay: MIC by microbroth dilution method; type: cell-based
MRSA 562 = assay: MIC by microbroth dilution method; type: cell-based, S. aureus
MRSE ATCC 35984 = assay: MIC by microbroth dilution method; type: cell-based, S. epidermidis
MRSA ATCC BAA 39 = assay: MIC by microbroth dilution method; type: cell-based, S. aureus
[1] = system: S.aureus ATCC 49775 PVL + ve; type: cell-based
S.aureus2 (PVL + ve) = type: cell-based, S. aureus
MRSA DB 00026 = assay: MIC by microbroth dilution method; type: cell-based, S. aureus
S.epidermis St 358 = assay: MIC by microbroth dilution method; type: cell-based, S. epidermidis
E.faecium 06076 VRE = assay: MIC by microbroth dilution method; type: cell-based
S.aureus DB00026 = assay: MIC by microbroth dilution method; type: cell-based
S.epidermidis ATCC 12228 = assay: MIC by microbroth dilution method; type: cell-based
E.coli 7632 = assay: MIC by microbroth dilution method; type: cell-based
[2] = system: S.aureus ATCC Newman 25904; assay: MIC by microbroth dilution method; type: cell-based
S.epidermidis ATCC 14990 = assay: MIC by microbroth dilution method; type: cell-based
MRSA 0-2657 = assay: MIC by microbroth dilution method; type: cell-based, S. aureus
[3] = system: S.aureus 13709 LNZ mutant; type: cell-based
E.faecium ATCC 49224 = assay: MIC by microbroth dilution method; type: cell-based
E.faecalis ATCC 29212 = assay: MIC by microbroth dilution method; type: cell-based
[4] = system: Mycobacterium tuberculosis H37Rv; assay: Anti-TB activity, colorimetric resazurin microtiter assay; type: cell-based; conditions: for MIC: Mycobacterium tuberculosis, H37RV, read-out: MIC, Minimum Inhibitory Concentration (90%)
[5] = system: S.aureus ATCC 700699 Mu50; assay: MIC by microbroth dilution method; type: cell-based
S.aureus ATCC 29213 = assay: MIC by microbroth dilution method; type: cell-based
MRSA 252 BAA 1720 = assay: MIC by microbroth dilution method; type: cell-based, S. aureus
[6] = system: E.faecalis ATCC 51299(VRE&HLAR); assay: MIC by microbroth dilution method; type: cell-based
[7] = system: S.aureus ATCC 13709 Smith; assay: MIC by microbroth dilution method; type: cell-based
E.faecium ATCC 35667 = assay: MIC by microbroth dilution method; type: cell-based
E.faecalis ATCC 19433 = assay: MIC by microbroth dilution method; type: cell-based
E.faecium 6A VRE = assay: MIC by microbroth dilution method; type: cell-based

| SMILES | MIC (MRSE ATCC 35983) [µg/mL] | MIC (MRSA ATCC 43300) [µg/mL] | MIC (E.faecium ATCC 19434) [µg/mL] | MIC (E.faecalis SP 346 VRE) | MIC (E.faecium 134 VRE) [µg/mL] | MIC (E.faecium ATCC 3567) [µg/mL] | MIC (MRSA 562) [µg/mL] | MIC (MRSE ATCC 35984) [µg/mL] | MIC (MRSA ATCC BAA 39) [µg/mL] | MIC [1] | MIC (S.aureus2 (PVL + ve)) [µg/mL] | MIC (MRSA DB 00026) [µg/mL] | MIC (S.epidermis St 358) [µg/mL] | MIC (E.faecium 06076 VRE) [µg/mL] | MIC (S.aureus DB00026) [µg/mL] | MIC (S.epidermidis ATCC 12228) [µg/mL] | MIC (E.coli 7632) [µg/mL] | MIC [2] [µg/mL] | MIC (S.epidermidis ATCC 14990) [µg/mL] | MIC (MRSA 0-2657) | further results |
| --- | --- | --- | --- | --- | --- | --- | --- | --- | --- | --- | --- | --- | --- | --- | --- | --- | --- | --- | --- | --- | --- |
| CC(=O)NCC1CN(c2ccc(N3CC[Si](C)(C)CC3)c(F)c2)C(=O)O1 (stereo not shown) [NDS-10026, N-((3-(4-(4,4-dimethyl-1,4-azasilinan-1-yl)-3-fluorophenyl)-2-oxooxazolidin-5-yl)methy)acetamide] | 16 (≈ 42.2 µM) | 32 (≈ 84.3 µM) | > 16 | > 16 µg/mL | 16 (≈ 42.2 µM) | > 16 | 16 (≈ 42.2 µM) | 16 (≈ 42.2 µM) | 16 (≈ 42.2 µM) | > 16 µg/mL | 32 (≈ 84.3 µM) | > 16 | > 16 | > 16 | 32 (≈ 84.3 µM) | 16 (≈ 42.2 µM) | > 32 | 32 (≈ 84.3 µM) | 16 (≈ 42.2 µM) | 16 µg/mL (≈ 42.2 µM) | MIC [3]: > 16 µg/mL; MIC (E.faecium ATCC 49224): 8 µg/mL (≈ 21.1 µM); MIC (E.faecalis ATCC 29212): > 16 µg/mL; MIC, Minimum Inhibitory Concentration (90%) ([4]; inhibition of Mycobacterium tuberculosis H37Rv growth, 7H9-OADC media, 37° C., visual readout): 50 µg/mL (≈ 132 µM); MIC [5]: 16 µg/mL (≈ 42.2 µM); MIC (S.aureus ATCC 29213): 16 µg/mL (≈ 42.2 µM); MIC (MRSA 252 BAA 1720): 32 µg/mL (≈ 84.3 µM); MIC [6]: 16 µg/mL (≈ 42.2 µM); MIC [7]: > 16 µg/mL; MIC (E.faecium ATCC 35667): 8 µg/mL (≈ 21.1 µM); MIC (E.faecalis ATCC 19433): > 16 µg/mL; MIC (E.faecium 6A VRE): 16 µg/mL (≈ 42.2 µM) |
| C[Si]1(c2ccccc2)CCN(c2c(F)cc(N3C[C@H](CO)OC3=O)cc2F)CC1 [NDS-10071, (R)-3-(3,5-difluoro-4-(4-methyl-4-phenyl-1,4-azasilinan-1-yl)phenyl)-5-(hydroxylmethyl)oxazolidin-2-one] | 16 (≈ 38.2 µM) | > 32 | 32 (≈ 76.5 µM) | 16(ppt) | 8 (≈ 19.1 µM) | > 32 | 32 (≈ 76.5 µM) | 16 (≈ 38.2 µM) | 32 (≈ 76.5 µM) | 16(ppt) | 32 (≈ 76.5 µM) | 16 (≈ 38.2 µM) | 16 (≈ 38.2 µM) | 32 (≈ 76.5 µM) | 32 (≈ 76.5 µM) | > 32 | 16 (≈ 38.2 µM) | 16 (≈ 38.2 µM) | 16 (≈ 38.2 µM) | 8(ppt) | melting point: 105 to 107 °C; MIC [3]: 16(ppt); MIC (E.faecium ATCC 49224): 32 µg/mL (≈ 76.5 µM); MIC (E.faecalis ATCC 29212): 8 µg/mL (≈ 19.1 µM); MIC [4]: 50 µg/mL (≈ 119 µM); MIC [5]: 32 µg/mL (≈ 76.5 µM); MIC (S.aureus ATCC 29213): > 32 µg/mL; MIC (MRSA 252 BAA 1720): 32 µg/mL (≈ 76.5 µM); MIC [6]: 32 µg/mL (≈ 76.5 µM); MIC [7]: 32 µg/mL (≈ 76.5 µM); MIC (E.faecium ATCC 35667): 16 µg/mL (≈ 38.2 µM); MIC (E.faecalis ATCC 19433): 16 µg/mL (≈ 38.2 µM); MIC (E.faecium 6A VRE): 32 µg/mL (≈ 76.5 µM) |
| CC(=O)NC[C@H]1CN(c2ccc(N3CC[Si](C)(C)CC3)c(F)c2)C(=O)O1 [NDS-10024, (S)—N-((3-(4-(4,4-dimethyl-1,4-azasilinan-1-yl)-3-fluorophenyl)-2-oxooxazolidin-5-yl)methyl)acetamide] | 8 (≈ 21.1 µM) | 16 (≈ 42.2 µM) | 16 (≈ 42.2 µM) | 16 µg/mL (≈ 42.2 µM) | 16 (≈ 42.2 µM) | 16 (≈ 42.2 µM) | 16 (≈ 42.2 µM) | 8 (≈ 21.1 µM) | 16 (≈ 42.2 µM) | 16 µg/mL (≈ 42.2 µM) | 16 (≈ 42.2 µM) | 16 (≈ 42.2 µM) | 8 (≈ 21.1 µM) | 16 (≈ 42.2 µM) | 16 (≈ 42.2 µM) | 8 (≈ 21.1 µM) | > 32 | 16 (≈ 42.2 µM) | 8 (≈ 21.1 µM) | 8 µg/mL (≈ 21.1 µM) | MIC [3]: > 16 µg/mL; MIC (E.faecium ATCC 49224): 8 µg/mL (≈ 21.1 µM); MIC (E.faecalis ATCC 29212): 16 µg/mL (≈ 42.2 µM); anti-tubercular activity (in words) ([4]; Mycobacterium tuberculosis H37Rv): good anti-tubercular activity; MIC [4]: 6.25 µg/mL (≈ 16.5 µM); MIC [5]: 8 µg/mL (≈ 21.1 µM); MIC (S.aureus ATCC 29213): 16 µg/mL (≈ 42.2 µM); MIC (MRSA 252 BAA 1720): 16 µg/mL (≈ 42.2 µM); MIC [6]: 16 µg/mL (≈ 42.2 µM); MIC [7]: 16 µg/mL (≈ 42.2 µM); MIC (E.faecium ATCC 35667): 8 µg/mL (≈ 21.1 µM); MIC (E.faecalis ATCC 19433): 16 µg/mL (≈ 42.2 µM); MIC (E.faecium 6A VRE): 16 µg/mL (≈ 42.2 µM) |
| C[Si]1(C)CCN(c2c(F)cc(N3C[C@H](CO)OC3=O)cc2F)CC1 [NDS-10052, (R)-3-(4-(4,4-dimethyl-1,4-azasilinan-1-yl)-3,5-difluorophenyl)-5-(hydroxymethyl)oxazolidin-2-one] | > 32 | > 32 | 16 (≈ 44.9 µM) | > 32 µg/mL | > 32 | 32 (≈ 89.8 µM) | 16 (≈ 44.9 µM) | 32 (≈ 89.8 µM) | 16 (≈ 44.9 µM) | > 32 µg/mL | > 32 | > 32 | > 32 | > 32 | 32 (≈ 89.8 µM) | > 32 | > 32 | > 32 | 16 (≈ 44.9 µM) | > 32 µg/mL | melting point: 126 to 128 °C; MIC [3]: > 32 µg/mL; MIC (E.faecium ATCC 49224): 8 µg/mL (≈ 22.4 µM); MIC (E.faecalis ATCC 29212): > 32 µg/mL; MIC [5]: 8 µg/mL (≈ 22.4 µM); MIC (S.aureus ATCC 29213): > 32 µg/mL; MIC (MRSA 252 BAA 1720): > 32 µg/mL; MIC [6]: > 32 µg/mL; MIC [7]: > 32 µg/mL; MIC (E.faecium ATCC 35667): 32 µg/mL (≈ 89.8 µM); MIC (E.faecalis ATCC 19433): > 32 µg/mL; MIC (E.faecium 6A VRE): 8 µg/mL (≈ 22.4 µM) |
